This note sets out measurements from PubChem BioAssay (NCI).

Where “and” joins values, the source holds several entries; their conditions need not be identical. Equal values may be shown once.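 In this assay, cells in 96-well plates receive the compound at five concentrations for 48 hours. Endpoints are linearly interpolated between the surrounding concentrations. Abbreviation: GI50, concentration required for 50% inhibition of growth. Definition used: TGI = concentration required for complete inhibition of growth.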 Some results are limits rather than exact numbers.

What all share (assay): NCI-60 cell line screen, 48 h
Assay [1] has as its system A549 NSCLC.
Assay [2] concerns ACHN renal.
In assay [3] the test system is HCT-15 colon.
Assay [4] has as its system IGROV1 ovarian.
In assay [5] the test system is K-562 leukemia.
Assay [6] has as its system KM12 colon.
For assay [7], the system named is NCI-H460 lung.
The test system of assay [8] is SK-MEL-2 melanoma.
Assay [9] relates to SK-OV-3 ovarian.

With `Cc1cc(Cl)ccc1NC(=O)CCCC(=O)C1CCCC1=O` (stereo not given), the TGI in assay [1], in assay [2], in [3], in assay [4], in assay [5] and in assay [6] was greater than 100 µM each time. The TGI in [7], in [8] and in assay [9] was greater than 100 µM throughout.

For `O=C(Nc1cc(Cl)c(Cl)cc1Cl)C(=O)C1C=CCS1(=O)=O` (stereo not given), the TGI in [1], in [2], in [3], in assay [4], in [5] and in assay [6] was greater than 100 µM in each case. Besides, the TGI in assay [7], in assay [8] and in assay [9] was greater than 100 µM in each case.

Regarding `CCCCCCCCC[C@@H]1CC(=O)OCC2OC(O[C@H](CCCCCCCCC)CC(=O)OCC3OC(O[C@H](CCCCCCCCC)CC(=O)OCC4OC(O1)C(O)C(O)C4O)C(O)C(O)C3O)C(O)C(O)C2O` (stereo not given in full), the TGI in assay [1] turned out to be 29.4 µM; in assay [2], 26.1 µM; in assay [3], 21 µM; in assay [4], 28.2 µM; in [5] it was 15.1 µM; in assay [6] it was 20.2 µM. In addition, the TGI in assay [7] stood at 17.3 µM; in [8] it was 22.3 µM; in assay [9] it was 26.5 µM.

On to `O=S(=O)(N/N=C/c1ccc(/C=N/NS(=O)(=O)c2ccccc2)cc1)c1ccccc1`, for which the TGI was greater than 100 µM in assay [1]; greater than 100 µM in assay [2]; greater than 100 µM in assay [3]; greater than 100 µM in [4]; 98.5 µM in assay [5]; greater than 100 µM in assay [6]. Also, the TGI in assay [7], in assay [8] and in assay [9] was greater than 100 µM throughout.

Consider `O=[N+]([O-])c1cccc(C2N3CCCCC3[C@@H]3c4[nH]c5ccccc5c4CCN23)c1` (stereo not given in full), for which the TGI in [1] turned out to be 45.5 µM; in assay [2], 38.7 µM; in [3] it was 23.3 µM; in assay [4], 39.2 µM; in [5], 19.6 µM; in [7] it was 31.1 µM. Further, the TGI was 22 µM in assay [8] and 52.1 µM in assay [9].

Turning to `COc1c2nc(CCl)[nH]c(=O)c2c(OC)c2nc(CCl)[nH]c(=O)c12`, the TGI in assay [1], in [2], in [3], in assay [4], in assay [5] and in assay [6] was greater than 100 µM in each case. In addition, the TGI in assay [7], in [8] and in assay [9] was greater than 100 µM in each case.

Consider `CC/C(C)=C1\CCC(CN2CCOCC2)C1=O` (stereo not given), for which the TGI in assay [1] is 41.6 µM; in assay [2], 19.8 µM; in assay [3], 26.5 µM; in assay [4], 38.1 µM; in assay [5], greater than 100 µM; in [6], greater than 100 µM. Moreover, the values for the TGI in assay [7] and in assay [8] were 32.4 µM and 32 µM, respectively.

For `CC1C[C@@]2(c3ccccc3)C(=O)CCC[C@H]2N1` (stereo not given in full), the TGI in [1], in [2], in assay [4], in assay [5], in assay [6] and in [7] was greater than 100 µM each time. The TGI in assay [8] and in [9] was greater than 100 µM each time.

In the case of `C=CC1(C(=O)O)CCC(C(C)(C)C)CC1` (stereo not given), the TGI in [1], in assay [2], in assay [3], in [4], in assay [5] and in [6] was greater than 100 µM in each case. The TGI in [7], in [8] and in [9] was greater than 100 µM throughout.

`COc1cc2c(cc1OCCCOc1cc3c(cc1OC)C(=O)N1C[C@H](F)C[C@H]1C=N3)N=C[C@@H]1C[C@@H](F)CN1C2=O`: the GI50 in assay [1] is 13.6 µM; in assay [2] it was 10.5 µM; in [3], 10.3 µM; in [4], 1.89 µM; in assay [5] it was 2.98 µM; in assay [6], 12.7 µM. Besides, the GI50 in [7] was 6.15 µM; in assay [8] it was 2.04 µM; in assay [9], 17.9 µM. The TGI came out at 28.5 µM in [1]; 31.8 µM in assay [2]; 23.6 µM in assay [3]; 5.88 µM in assay [4]; 12.7 µM in assay [5]; 26.7 µM in [6]. The results for the TGI in [7], in assay [8] and in [9] were 20.1 µM, 5.71 µM and 32.9 µM, respectively.

In the case of `O=C1OC(CC(=O)c2ccc(Cl)c(Cl)c2)C(Cl)=C1Cl` (stereo not given), the TGI in [1], in assay [2], in assay [3], in assay [4], in assay [5] and in assay [6] was greater than 100 µM throughout. For the same compound, the TGI in assay [7], in [8] and in assay [9] was greater than 100 µM in each case.

For `CC(=O)OCC1OC(N2C(=O)C(=O)c3cc(C)ccc32)C(OC(C)=O)C(OC(C)=O)C1OC(C)=O` (stereo not given), the TGI in assay [1], in [2], in [3], in assay [4], in [5] and in assay [6] was greater than 100 µM throughout. The TGI in assay [7], in [8] and in [9] was greater than 100 µM throughout.

Take `CCNC(=O)CCN(C(=O)O)S(=O)(=O)c1ccc(NC(=O)c2ccccc2)cc1`: the TGI in [1], in assay [2], in assay [3], in [4], in assay [5] and in assay [6] was greater than 100 µM each time. Also, the TGI in [7], in assay [8] and in assay [9] was greater than 100 µM in each case.

In the case of `NNC(=O)/C(=C/c1ccc(Cl)c(Cl)c1)NC(=O)c1ccccc1`, the TGI in assay [1], in assay [2], in assay [4], in assay [6], in assay [7] and in [8] was greater than 100 µM in each case.

`CC1=C(C(=O)Nc2ccccc2C)C(c2ccc(Cl)c(Cl)c2)C(C(=O)Nc2ccccc2C)=C(C)N1`: the TGI in assay [1] was greater than 100 µM; in assay [2] it was greater than 100 µM; in assay [3], 47.2 µM; in assay [4] it was 93.1 µM; in assay [5] it was 79.8 µM; in [6], 87.4 µM. The TGI in assay [7] worked out at 36.4 µM; in assay [8], 33.6 µM; in assay [9], 81.4 µM.

For `CCOC(=O)NC(=O)c1cn(CC(=O)NCC(=O)NCC(=O)NCCCN2CCN(CCCNC(=O)CNC(=O)CNC(=O)Cn3cc(C(=O)NC(=O)OCC)c(=O)[nH]c3=O)CC2)c(=O)[nH]c1=O`, the TGI in [1], in assay [2], in assay [3], in assay [4], in [5] and in [6] was greater than 100 µM each time. In addition, the TGI in assay [7], in assay [8] and in [9] was greater than 100 µM throughout.

On to `COc1cc(Cl)c2c3c(c(C(C)=O)oc13)CCC2`, for which the TGI in [1], in assay [2], in assay [3], in [4], in assay [5] and in assay [7] was greater than 100 µM each time. In assay [9], this compound gave a TGI greater than 100 µM.

On to `COc1cc(/C=C(\C#N)C(=O)c2ccccc2)ccc1OCc1ccccc1`, for which the TGI in [1], in assay [2], in assay [3], in assay [4], in assay [5] and in assay [6] was greater than 100 µM each time. Further, the TGI in assay [8] and in assay [9] was greater than 100 µM in each case.

As to `CCOC(=O)C(N)C[S][Sn]([CH3])([CH3])[Cl]` (stereo not given), the GI50 in [1] was greater than 100 µM; in assay [2], greater than 100 µM; in assay [3], greater than 79.1 µM; in [4], greater than 100 µM; in assay [5], 39.6 µM; in assay [6] it was greater than 100 µM. Moreover, the GI50 in assay [7], in assay [8] and in [9] was greater than 100 µM each time. In addition, the TGI in assay [1], in assay [2], in assay [3], in assay [4], in [5] and in [6] was greater than 100 µM each time. The TGI in assay [7], in assay [8] and in [9] was greater than 100 µM in each case.

`CC[C@@H]1OC2(C)CC(S(=O)(=O)c3ccccc3O)CC1O2` (stereo not given in full): the TGI in assay [1], in assay [2], in [3], in [4], in assay [5] and in [6] was greater than 100 µM in each case. Further, the TGI in assay [7], in [8] and in [9] was greater than 100 µM in each case.

`Cc1[nH]c2ccccc2c1C1Cc2ccccc2N1C(=O)/C=C\C(=O)O` (stereo not given): the TGI in assay [1], in [2], in assay [3], in assay [4], in assay [5] and in assay [6] was greater than 100 µM throughout. Also, the TGI in assay [7] was greater than 100 µM; in assay [8] it was 39.6 µM; in [9], greater than 100 µM.

Turning to `COc1ccccc1N1C(=O)/C(=C/c2ccc(N(CCC#N)CCC#N)cc2C)N=C1c1cc([N+](=O)[O-])ccc1Cl`, the TGI in assay [1], in assay [2], in assay [3], in assay [4], in assay [5] and in assay [6] was greater than 100 µM each time. For the same compound, the TGI in assay [7], in assay [8] and in [9] was greater than 100 µM each time.

Take `CCN(CC)CCC(=O)NC1c2ccc(Cl)cc2Oc2c(C)cccc21` (stereo not given): the TGI in assay [1] is 33.3 µM; in assay [3], 34.6 µM; in assay [4], 40 µM; in assay [5], 40.7 µM; in [6] it was 30.4 µM; in assay [7] it was 31.7 µM. For the same compound, the TGI in assay [9] stood at 31.8 µM.

As for `CC(C)CS(=O)(=O)/C(=C(\c1ccc(Br)cc1)S(=O)(=O)CC(C)C)c1ccc(Br)cc1`, the TGI in assay [1] is greater than 100 µM; in assay [2], greater than 100 µM; in assay [3] it was greater than 100 µM; in assay [4], 40.9 µM; in assay [5] it was greater than 100 µM; in assay [6], greater than 100 µM. Moreover, the TGI in [7] and in assay [8] was greater than 100 µM in each case.

For the compound `COc1ccc([N+]2=NC(c3ccc([N+](=O)[O-])cc3)=NN(c3ccccc3)C2)cc1`, the TGI is greater than 100 µM in assay [1]; greater than 100 µM in [2]; greater than 100 µM in assay [3]; greater than 100 µM in assay [4]; 97.3 µM and > 100 µM in assay [5]; greater than 100 µM in assay [6]. Besides, the TGI in assay [7] is greater than 100 µM.

In the case of `COc1ccc(NC(=O)C(=O)C(C(=O)c2ccccc2)C2OC(=O)c3ccccc32)c([N+](=O)[O-])c1` (stereo not given), the TGI in [1], in assay [2], in [3], in assay [4], in assay [5] and in [6] was greater than 100 µM in each case. Further, the TGI in assay [7], in assay [8] and in assay [9] was greater than 100 µM in each case.

`NC(=O)C(=Cc1ccc(C(O)P(=O)(O)O)cc1)C(N)=O` (stereo not given): the TGI in [1], in assay [2], in assay [3], in assay [4], in [5] and in assay [6] was greater than 100 µM each time. Also, the TGI in [7], in assay [8] and in assay [9] was greater than 100 µM throughout.

Regarding `COc1ccc(-c2onc(-c3ccc([N+](=O)[O-])cc3)c2C2=NCCN2)cc1`, the TGI in assay [1], in [2], in assay [3], in [4], in assay [5] and in assay [6] was greater than 100 µM in each case. Moreover, the TGI in assay [7] and in assay [8] was greater than 100 µM in each case.
